According to paper PMC12090182, “Repurposing of the RIPK1-Selective Benzo[1,4]oxazepin-4-one Scaffold for the Development of a Type III LIMK1/2 Inhibitor” (ACS Chemical Biology, 2025):
Several values for one entry are separate records, joined by “and”; a condition that tells them apart may be missing. Equal entries are not always repeated.

Legend:
Format in all cases: cell-based
HEK293T cells = conditions: HEK293T, 10 µM
Protocol: (§1) To assess the influence on cell health, a high-content screening in living cells called the multiplex high-content assay, as described previously by Tjaden et al., was performed.[38] In brief, HEK293T (ATCC CRL-1573) and U2OS (ATCCHTB-96) were cultured in DMEM plus L-glutamine (high glucose) supplemented by 10% FBS (Gibco) and penicillin/streptomycin (Gibco). MRC-9 fibroblasts ([…]) were cultured in EMEM plus L-glutamine supplemented by 10% FBS (Gibco) and penicillin/streptomycin (Gibco). Cells were seeded at a density of 1250 cells per well in a 384-well plate in a culture medium (cell culture microplate, PS, f-bottom, μClear, 781091, Greiner), with a volume of 50 μL per well. All outer wells were filled with 100 μL of PBS buffer (Gibco). […] The cell shape and fluorescence were measured before treatment and 12, 24, and 48 h after compound treatment using the CQ1 high-content confocal microscope (Yokogawa, Musashino, Japan). […] The compounds were tested at 1 and 10 μM, respectively. Acquired images of the cells were processed using Yokogawa CellPathfinder software (v3.04.02.02). […] Results were normalized to cells exposed to 0.1% DMSO. All compounds were tested in biological duplicates, and SEM (standard error of mean) was calculated of biological duplicates.

U2OS cells = conditions: U2OS; 10 µM; 0 h after treatment
Protocol: as §1

MRC-9 cells = test: Multiplex high-content viability assessment; conditions: human fibroblast, 10 µM
Protocol: as §1

LIMK1 = LIMK1 (Homo sapiens, UniProt P53667); test: NanoBRET cellular target engagement; set-up: purchased Carna Biosciences; conditions: LIMK1, HEK293T cells
Sequence of LIMK1 (P53667 whole entry): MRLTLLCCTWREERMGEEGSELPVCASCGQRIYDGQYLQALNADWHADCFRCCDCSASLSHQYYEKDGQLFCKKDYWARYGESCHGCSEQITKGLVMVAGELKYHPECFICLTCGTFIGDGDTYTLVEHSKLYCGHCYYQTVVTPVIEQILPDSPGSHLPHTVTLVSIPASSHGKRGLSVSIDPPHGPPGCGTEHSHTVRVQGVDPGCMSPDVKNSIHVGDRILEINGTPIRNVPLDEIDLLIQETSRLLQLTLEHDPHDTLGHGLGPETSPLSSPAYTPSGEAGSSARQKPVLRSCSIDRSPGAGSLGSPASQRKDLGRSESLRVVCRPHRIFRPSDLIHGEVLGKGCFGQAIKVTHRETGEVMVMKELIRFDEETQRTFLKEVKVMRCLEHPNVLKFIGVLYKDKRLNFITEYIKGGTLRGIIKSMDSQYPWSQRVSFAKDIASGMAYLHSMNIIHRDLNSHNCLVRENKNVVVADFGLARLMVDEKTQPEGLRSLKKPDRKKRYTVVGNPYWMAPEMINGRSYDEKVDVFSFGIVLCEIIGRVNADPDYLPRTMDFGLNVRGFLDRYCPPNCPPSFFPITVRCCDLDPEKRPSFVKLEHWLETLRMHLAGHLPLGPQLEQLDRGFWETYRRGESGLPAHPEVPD
Protocol: (§2) The assay was performed as described previously.[31],[32] In brief, full-length LIMK1/2, RIPK1, BTK, and LRRK2 cloned in a frame in a NanoLuc-vector (Promega) were transfected into HEK293T cells (ATCC CRL-1573) using FuGENE HD (Promega, E2312), and proteins were allowed to express for 20 h. The serially diluted inhibitor and NanoBRET Kinase Tracer (Promega) used at the previously determined Tracer KD,app (Table S1) were pipetted into white 384-well plates (Greiner 781 207) using an ECHO 550 acoustic dispenser (Labcyte). The corresponding transfected cells were added and reseeded at a density of 2 × 10^5 cells/mL after trypsinization and resuspension in Opti-MEM without phenol red (Life Technologies). The system was allowed to equilibrate for 2 h at 37 °C and 5% CO2 prior to BRET measurements. To measure BRET, a NanoBRET Nano-Glo substrate and an extracellular NanoLuc inhibitor (Promega, N2160) were added as per the manufacturer's protocol, and filtered luminescence was measured on a PHERAstar plate reader (BMG Labtech) equipped with a luminescence filter pair (a 450 nm BP filter (donor) and a 610 nm LP filter (acceptor)). Competitive displacement data were then plotted using GraphPad Prism 10 software using a normalized three-parameter curve fit with the following equation: Y = 100/( [drawing 1] ).

LIMK2 = LIMK2 (Homo sapiens, UniProt P53671); test: NanoBRET cellular target engagement; set-up: full-length LIMK1/2, RIPK1, BTK, and LRRK2 cloned in a frame in a NanoLuc-vector (Promega); host or cells: HEK293T; conditions: LIMK2, HEK293T cells
Sequence of LIMK2 (P53671 whole entry): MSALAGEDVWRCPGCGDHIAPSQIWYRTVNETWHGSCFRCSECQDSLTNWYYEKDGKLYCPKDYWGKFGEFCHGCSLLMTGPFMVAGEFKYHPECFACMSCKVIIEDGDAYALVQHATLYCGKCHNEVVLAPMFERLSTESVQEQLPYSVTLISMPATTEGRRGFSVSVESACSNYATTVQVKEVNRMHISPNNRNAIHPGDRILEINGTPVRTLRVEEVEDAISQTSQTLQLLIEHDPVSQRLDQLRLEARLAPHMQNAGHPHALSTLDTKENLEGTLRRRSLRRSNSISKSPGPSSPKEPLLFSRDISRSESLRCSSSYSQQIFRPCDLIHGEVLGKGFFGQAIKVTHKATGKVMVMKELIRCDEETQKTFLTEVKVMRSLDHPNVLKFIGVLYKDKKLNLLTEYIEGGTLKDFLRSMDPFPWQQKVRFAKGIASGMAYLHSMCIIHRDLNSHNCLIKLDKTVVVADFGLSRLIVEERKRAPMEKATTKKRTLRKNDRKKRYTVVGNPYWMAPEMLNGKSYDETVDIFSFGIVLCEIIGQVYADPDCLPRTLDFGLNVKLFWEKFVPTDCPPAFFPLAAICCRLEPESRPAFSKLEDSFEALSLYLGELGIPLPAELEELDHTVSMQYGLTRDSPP
Protocol: as §2

Compound | Population with membrane disruption (%) (HEK293T cells; 0 h after treatment) | Population Healthy Nuclei (%) (HEK293T cells; 12 h after treatment) | Population cell that influence microtubule strucutre (%) (HEK293T cells; 12 h after treatment) | Population apoptotic cell (%) (HEK293T cells; 48 h after treatment) | Population with increased mitochondrial mass (%) (U2OS cells) | Population Healthy Nuclei (%) (MRC-9 cells; 0 h after treatment) | Population Fragmented Nuclei (%) (MRC-9 cells; 12 h after treatment) | Population Healthy Nuclei (%) (MRC-9 cells; 12 h after treatment) | Population apoptotic cell (%) (MRC-9 cells; 12 h after treatment) | Population Fragmented Nuclei (%) (MRC-9 cells; 24 h after treatment) | Population Healthy Nuclei (%) (MRC-9 cells; 24 h after treatment) | Population Fragmented Nuclei (%) (MRC-9 cells; 48 h after treatment) | Population Healthy Nuclei (%) (MRC-9 cells; 48 h after treatment) | EC50 (LIMK1) | EC50 (LIMK2)
CN[C@@H]1C[C@H]2O[C@@](C)([C@@H]1OC)n1c3ccccc3c3c4c(c5c6ccccc6n2c5c31)C(=O)NC4 [staurosporine] | 0.00% | 64.72% and 69.22% and 71.09% | 37.22% and 35.67% | 60.00% and 75.00% and 76.47% | 2.11% and 3.70% and 5.56% | 63.64% and 62.50% and 53.61% and 54.10% | 57.03% and 59.76% and 57.04% and 49.59% | 32.43% and 29.76% and 33.41% and 38.90% | 48.72% and 46.51% and 42.50% and 50.00% | 56.12% and 54.77% and 50.00% and 53.32% | 37.01% and 35.97% and 41.62% and 36.60% | 53.07% and 56.00% and 48.62% and 54.18% | 39.48% and 36.86% and 44.48% and 39.35% | – | –
CN1C(=O)[C@@H](N2CCc3cn(Cc4ccccc4)nc3C2=O)COc2ccccc21 [TP-030-1] | – | – | – | – | – | – | – | – | – | – | – | – | – | 42 µM | 38 µM
